US20020137929A1, “1 - (3-heterocyclylphenyl) isothiourea, -isourea, -guanidine and -amidine herbicidal agents” (Intellectual Property Department, BASF Aktiengesellschaft, priority 1998, published 2002)

Columns and labels:
[1] = tested on: ORYSAT (Rice, Tebonnet); test: Postemergence herbicidal evaluation; format: in vivo, Oryza sativa, (L.) Tebonnet; conditions: postemergence
Procedure, shortened: (§1)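 ~2-wk seedlings; postemergence spray, 40 psi; vehicle 1:1 acetone:water + 0.5% Tween 20; rate ≈0.0156–0.500 kg/ha; greenhouse hold; scored 4–5 wk after treatment, 0–9 scale vs control; repeat tests averaged.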

[2] = tested on: ECHCG (Barnyardgrass); test: Postemergence herbicidal evaluation; format: in vivo, Echinochloa crus-galli; conditions: postemergence
Procedure, shortened: as §1

[3] = tested on: MOOVA (Monochoria); test: Preemergence weed control under flooded paddy conditions; format: in vivo, Monochoria vaginalis; conditions: rated 3-4 weeks after treatment
Procedure, shortened: (§2)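 Silt loam, seeds in top 0.5 cm; flood held 1.5-3 cm; test cpd as acetone/water 50/50 into flood water, ~0.0313-0.500 kg/ha a.i.; greenhouse 3-4 wk; visual 0-9 score vs control.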

[4] = tested on: GLXMAW (Soybean, Williams); test: Postemergence herbicidal evaluation; format: in vivo, Glycine max, (L.) Merr. cv Williams; conditions: postemergence
Procedure, shortened: as §1

[5] = tested on: SETVI (Foxtail, Green); test: Preemergence herbicidal evaluation; format: in vivo, Setaria viridis; conditions: rated 4-5 weeks after treatment, rating scale 0-9
Procedure, shortened: (§3)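 Preemergence soil application of compound, sprayed in aqueous acetone at rates equivalent to about 0.0156 to 0.500 kg per hectare onto freshly sown cups. Plant response was judged by eye on a 0-9 scale four to five weeks later.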

[6] = tested on: ABUTH (Velvetleaf); test: Preemergence herbicidal evaluation; format: in vivo, Abutilon theophrasti; conditions: rated 4-5 weeks after treatment, rating scale 0-9
Procedure, shortened: as §3

[7] = tested on: CASOB (Sicklepod); test: Preemergence herbicidal evaluation; format: in vivo, Cassia obtusifolia; conditions: rated 4-5 weeks after treatment, rating scale 0-9
Procedure, shortened: as §3

[8] = tested on: SETVI (Foxtail, Green); test: Postemergence herbicidal evaluation; format: in vivo, Setaria viridis; conditions: postemergence
Procedure, shortened: as §1

[9] = tested on: AMBEL (Ragweed, Common); test: Postemergence herbicidal evaluation; format: in vivo, Ambrosia artemisifolia; conditions: postemergence
Procedure, shortened: as §1

[10] = tested on: SAGPY (Arrowhead (Pygmaea)); test: Preemergence weed control under flooded paddy conditions; format: in vivo, Sagittaria pygmaea; conditions: rated 3-4 weeks after treatment
Procedure, shortened: as §2

[11] = tested on: TRZAWR (Wheat, Winter, cv Riband); test: Postemergence herbicidal evaluation; format: in vivo, Triticum aestivum; conditions: postemergence
Procedure, shortened: as §1

[12] = tested on: ABUTH (Velvetleaf); test: Postemergence herbicidal evaluation; format: in vivo, Abutilon theophrasti; conditions: postemergence
Procedure, shortened: as §1

| SMILES | herbicidal rating ORYSAT ([1]; rate 0.0156 kg/ha) | herbicidal rating ORYSAT ([1]; rate 0.0313 kg/ha) | herbicidal rating ORYSAT ([1]; rate 0.0625 kg/ha) | herbicidal rating ECHCG ([2]; rate 0.0156 kg/ha) | herbicidal rating ECHCG ([2]; rate 0.0313 kg/ha) | herbicidal rating ECHCG ([2]; rate 0.0625 kg/ha) | herbicidal effect rating, MOOVA ([3]; 0.0625 kg/ha) | herbicidal effect rating, MOOVA ([3]; 0.1250 kg/ha) | herbicidal effect rating, MOOVA ([3]; 0.2500 kg/ha) | herbicidal rating GLXMAW ([4]; rate 0.0156 kg/ha) | herbicidal rating GLXMAW ([4]; rate 0.0313 kg/ha) | herbicidal rating GLXMAW ([4]; rate 0.0625 kg/ha) | Preemergence herbicidal rating SETVI ([5]; rate 0.0625 kg/ha) | Preemergence herbicidal rating SETVI ([5]; rate 0.1250 kg/ha) | Preemergence herbicidal rating SETVI ([5]; rate 0.2500 kg/ha) | Preemergence herbicidal rating ABUTH ([6]; rate 0.0625 kg/ha) | Preemergence herbicidal rating ABUTH ([6]; rate 0.1250 kg/ha) | Preemergence herbicidal rating ABUTH ([6]; rate 0.2500 kg/ha) | Preemergence herbicidal rating CASOB ([7]; rate 0.0625 kg/ha) | Preemergence herbicidal rating CASOB ([7]; rate 0.1250 kg/ha) | also measured |
| --- | --- | --- | --- | --- | --- | --- | --- | --- | --- | --- | --- | --- | --- | --- | --- | --- | --- | --- | --- | --- | --- |
| Cn1c(C(F)(F)F)cc(=O)n(-c2cc(N=C3SCC(=O)N3C3CC3)c(Cl)cc2F)c1=O [Compound 152, 3-{4-Chloro-5-[(3-cyclopropyl-4-oxo-2-thiazolidinylidene)amino]-2-fluorophenyl}-1-methyl-6-(trifluoromethyl)-2,4(1H,3H)-pyrimidinedione] | 1.5 | 2.0 | 3.0 | 1.0 | 2.0 | 2.0 | 3.0 | 3.0 | 3.0 | 4.0 | 4.5 | 6.0 | 1.0 | 1.0 | 9.0 | 0.0 | 9.0 | 9.0 | 1.0 | 0.0 | Preemergence herbicidal rating SETVI ([5]; rate 0.0313 kg/ha): 0.0; Preemergence herbicidal rating ABUTH ([6]; rate 0.0313 kg/ha): 0.0; Preemergence herbicidal rating CASOB ([7]; rate 0.0313 kg/ha): 0.0; Preemergence herbicidal rating CASOB ([7]; rate 0.2500 kg/ha): 3.0; herbicidal rating SETVI ([8]; rate 0.0156 kg/ha): 0.0; herbicidal rating SETVI ([8]; rate 0.0313 kg/ha): 3.0; herbicidal rating SETVI ([8]; rate 0.0625 kg/ha): 3.0; herbicidal rating AMBEL ([9]; rate 0.0156 kg/ha): 2.0; herbicidal rating AMBEL ([9]; rate 0.0313 kg/ha): 4.0; herbicidal rating AMBEL ([9]; rate 0.0625 kg/ha): 9.0; herbicidal effect rating, SAGPY ([10]; 0.0625 kg/ha): 0.0; herbicidal effect rating, SAGPY ([10]; 0.1250 kg/ha): 0.0; herbicidal effect rating, SAGPY ([10]; 0.2500 kg/ha): 0.0; herbicidal rating TRZAWR ([11]; rate 0.0156 kg/ha): 3.0; herbicidal rating TRZAWR ([11]; rate 0.0313 kg/ha): 3.5; herbicidal rating TRZAWR ([11]; rate 0.0625 kg/ha): 4.0; herbicidal rating ABUTH ([12]; rate 0.0156 kg/ha): 6.0; herbicidal rating ABUTH ([12]; rate 0.0313 kg/ha): 4.0; herbicidal rating ABUTH ([12]; rate 0.0625 kg/ha): 9.0 |
| COCCN1C(=O)CSC1=Nc1cc(-n2c(=O)cc(C(F)(F)F)n(C)c2=O)c(F)cc1Cl [Compound 155, 3-{4-Chloro-2-fluoro-5-{[3-(2-methoxyethyl)-4-oxo-2-thiazolidinylidene]amino}phenyl}-1-methyl-6-(trifluoromethyl)-2,4(1H,3H)-pyrimidinedione] | 0.0 | 0.0 | 0.0 | 0.0 | 0.0 | 0.0 | 0.0 | 0.0 | 0.0 | 4.0 | 5.0 | 5.0 | 0.0 | 0.0 | 0.0 | 2.0 | 4.0 | 7.0 | 0.0 | 0.0 | herbicidal effect rating, MOOVA ([3]; 0.0313 kg/ha): 0.0; Preemergence herbicidal rating CASOB ([7]; rate 0.2500 kg/ha): 0.0; herbicidal rating SETVI ([8]; rate 0.0156 kg/ha): 0.0; herbicidal rating SETVI ([8]; rate 0.0313 kg/ha): 0.0; herbicidal rating SETVI ([8]; rate 0.0625 kg/ha): 0.0; herbicidal rating AMBEL ([9]; rate 0.0156 kg/ha): 0.0; herbicidal rating AMBEL ([9]; rate 0.0313 kg/ha): 0.0; herbicidal rating AMBEL ([9]; rate 0.0625 kg/ha): 0.0; herbicidal effect rating, SAGPY ([10]; 0.0313 kg/ha): 0.0; herbicidal effect rating, SAGPY ([10]; 0.0625 kg/ha): 0.0; herbicidal effect rating, SAGPY ([10]; 0.1250 kg/ha): 0.0; herbicidal effect rating, SAGPY ([10]; 0.2500 kg/ha): 0.0; herbicidal rating TRZAWR ([11]; rate 0.0156 kg/ha): 1.0; herbicidal rating TRZAWR ([11]; rate 0.0313 kg/ha): 2.0; herbicidal rating TRZAWR ([11]; rate 0.0625 kg/ha): 3.0; herbicidal rating ABUTH ([12]; rate 0.0156 kg/ha): 3.0; herbicidal rating ABUTH ([12]; rate 0.0313 kg/ha): 9.0; herbicidal rating ABUTH ([12]; rate 0.0625 kg/ha): 9.0 |
